Active and inactive are the calls of the source. The calls are words filed in the database; no cut-off is given here.
Tests used:
[1] = biological target: Protein cereblon/Apoptosis regulator Bcl-2 (Homo sapiens) (UniProt P10415+Q96SW2); assay: Protac activity at CRBN/BCL2 in human MOLT-4 cells assessed as induction of BCL2 degradation at 50 nM measured after 16 hrs by immunoblotting analysis; type: cell-based
[2] = biological target: Protein cereblon/Bcl-2-like protein 1 (Homo sapiens, UniProt Q07817+Q96SW2); assay: Protac activity at CRBN/BCL-XL in human MOLT-4 cells assessed as induction of BCL-XL degradation by measuring remaining BCL-XL level at 50 nM measured after 16 hrs by immunoblotting analysis relative to control; type: cell-based
Protein cereblon/Bcl-2-like protein 1, sequence (Q07817 whole entry, looked up): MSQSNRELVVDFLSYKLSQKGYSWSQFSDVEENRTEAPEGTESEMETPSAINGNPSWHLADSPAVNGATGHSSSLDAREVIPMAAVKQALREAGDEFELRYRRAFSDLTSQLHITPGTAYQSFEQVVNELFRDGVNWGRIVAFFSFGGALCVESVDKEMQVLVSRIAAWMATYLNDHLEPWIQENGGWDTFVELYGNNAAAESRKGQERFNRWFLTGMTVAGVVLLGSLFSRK
Protein cereblon/Bcl-2-like protein 1, sequence (Q96SW2 whole entry, looked up): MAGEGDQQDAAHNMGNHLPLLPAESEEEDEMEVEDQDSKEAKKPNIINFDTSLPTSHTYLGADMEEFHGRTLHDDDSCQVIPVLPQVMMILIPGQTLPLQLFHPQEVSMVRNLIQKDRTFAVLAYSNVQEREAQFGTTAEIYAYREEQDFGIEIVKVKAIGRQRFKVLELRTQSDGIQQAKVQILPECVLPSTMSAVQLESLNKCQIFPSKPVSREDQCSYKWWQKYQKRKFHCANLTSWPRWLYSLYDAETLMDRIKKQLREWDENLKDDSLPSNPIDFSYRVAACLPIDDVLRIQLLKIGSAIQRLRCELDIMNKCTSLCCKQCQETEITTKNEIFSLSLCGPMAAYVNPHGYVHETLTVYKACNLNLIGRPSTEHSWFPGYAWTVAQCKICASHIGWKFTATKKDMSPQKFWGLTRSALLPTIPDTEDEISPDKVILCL

MOLT-4 = assay: Antiproliferative activity against human MOLT-4 cells assessed as reduction in cell viability measured after 48 hrs by MTS assay; type: functional, cell-based; details: MOLT-4, 48 h
[3] = biological target: von Hippel-Lindau disease tumor suppressor/Bcl-2-like protein 1 (Homo sapiens, UniProt Q07817+P40337); assay: Protac activity at VHL/BCL-XL in human MOLT-4 cells assessed as induction of BCL-XL degradation by measuring remaining BCL-XL level at 100 nM measured after 16 hrs by immunoblotting analysis relative to control; type: cell-based
von Hippel-Lindau disease tumor suppressor/Bcl-2-like protein 1, sequence (P40337 whole entry, looked up): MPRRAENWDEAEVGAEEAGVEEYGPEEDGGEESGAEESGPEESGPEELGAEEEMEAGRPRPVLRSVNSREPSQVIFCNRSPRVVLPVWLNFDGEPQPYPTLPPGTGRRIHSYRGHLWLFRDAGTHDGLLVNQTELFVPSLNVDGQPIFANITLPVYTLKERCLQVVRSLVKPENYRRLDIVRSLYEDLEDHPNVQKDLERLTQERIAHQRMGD
von Hippel-Lindau disease tumor suppressor/Bcl-2-like protein 1, sequence (Q07817 whole entry, looked up): as the sequence (Q07817 whole entry, looked up) above

[4] = biological target: von Hippel-Lindau disease tumor suppressor/Apoptosis regulator Bcl-2 (Homo sapiens) (UniProt P10415+P40337); assay: Protac activity at VHL/BCL2 in human MOLT-4 cells assessed as induction of BCL2 degradation at 100 nM measured after 16 hrs by immunoblotting analysis; type: cell-based
von Hippel-Lindau disease tumor suppressor/Apoptosis regulator Bcl-2 (Homo sapiens), sequence (P10415 whole entry, looked up): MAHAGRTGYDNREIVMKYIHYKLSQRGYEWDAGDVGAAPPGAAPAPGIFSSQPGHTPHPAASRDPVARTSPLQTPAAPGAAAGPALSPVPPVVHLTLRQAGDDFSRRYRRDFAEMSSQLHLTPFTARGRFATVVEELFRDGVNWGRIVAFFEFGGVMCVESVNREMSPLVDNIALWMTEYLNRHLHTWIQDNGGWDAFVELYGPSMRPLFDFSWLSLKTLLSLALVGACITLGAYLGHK
von Hippel-Lindau disease tumor suppressor/Apoptosis regulator Bcl-2 (Homo sapiens), sequence (P40337 whole entry, looked up): as the sequence (P40337 whole entry, looked up) above

Protein cereblon/Apoptosis regulator Bcl-2 (Homo sapiens), sequence (P10415 whole entry, looked up): as the sequence (P10415 whole entry, looked up) above
Protein cereblon/Apoptosis regulator Bcl-2 (Homo sapiens), sequence (Q96SW2 whole entry, looked up): as the sequence (Q96SW2 whole entry, looked up) above

| Compound | Activity [1] | Activity [2] | IC50 (MOLT-4) | Activity [3] | Activity [4] |
| --- | --- | --- | --- | --- | --- |
| CC1(C)CCC(c2ccc(Cl)cc2)=C(CN2CCN(c3ccc(C(=O)NS(=O)(=O)c4ccc(N[C@H](CCN5CCN(C(=O)CCCNc6cccc7c6C(=O)N([C@@H]6CCC(=O)NC6=O)C7=O)CC5)CSc5ccccc5)c(S(=O)(=O)C(F)(F)F)c4)cc3)CC2)C1 | inactive | 44% |  |  |  |
| CN(CC[C@H](CSc1ccccc1)Nc1ccc(S(=O)(=O)NC(=O)c2ccc(N3CCN(CC4=C(c5ccc(Cl)cc5)CCC(C)(C)C4)CC3)cc2)cc1S(=O)(=O)C(F)(F)F)C(=O)CCCCCCn1cc(COCCOCCNc2cccc3c2C(=O)N([C@@H]2CCC(=O)NC2=O)C3=O)nn1 | inactive | 28% | 177 nM |  |  |
| CC1(C)CCC(c2ccc(Cl)cc2)=C(CN2CCN(c3ccc(C(=O)NS(=O)(=O)c4ccc(N[C@H](CCN5CCN(C(=S)NCCOCCOCCNc6cccc7c6C(=O)N([C@@H]6CCC(=O)NC6=O)C7=O)CC5)CSc5ccccc5)c(S(=O)(=O)C(F)(F)F)c4)cc3)CC2)C1 (racemic) | inactive | 76% | 722 nM |  |  |
| Cc1ncsc1-c1ccc([C@H](C)NC(=O)[C@@H]2C[C@@H](O)CN2C(=O)[C@@H](NC(=O)CCCCCCC(=O)N2CCN(CC[C@H](CSc3ccccc3)Nc3ccc(S(=O)(=O)NC(=O)c4ccc(N5CCN(CC6=C(c7ccc(Cl)cc7)CCC(C)(C)C6)CC5)cc4)cc3S(=O)(=O)C(F)(F)F)CC2)C(C)(C)C)cc1 |  |  | 108 nM | 32% | inactive |
| CN(CC[C@H](CSc1ccccc1)Nc1ccc(S(=O)(=O)NC(=O)c2ccc(N3CCN(CC4=C(c5ccc(Cl)cc5)CCC(C)(C)C4)CC3)cc2)cc1S(=O)(=O)C(F)(F)F)C(=O)CCCn1cc(COCCOCCNc2cccc3c2C(=O)N([C@@H]2CCC(=O)NC2=O)C3=O)nn1 | inactive | 66% | 770 nM |  |  |
| CN(CCCCNc1cccc2c1C(=O)N([C@@H]1CCC(=O)NC1=O)C2=O)CC[C@H](CSc1ccccc1)Nc1ccc(S(=O)(=O)NC(=O)c2ccc(N3CCN(CC4=C(c5ccc(Cl)cc5)CCC(C)(C)C4)CC3)cc2)cc1S(=O)(=O)C(F)(F)F | inactive | 40% | 38.7 nM |  |  |
| CC1(C)CCC(c2ccc(Cl)cc2)=C(CN2CCN(c3ccc(C(=O)NS(=O)(=O)c4ccc(N[C@H](CCN5CCN(C(=O)CCCCCNc6cccc7c6C(=O)N([C@@H]6CCC(=O)NC6=O)C7=O)CC5)CSc5ccccc5)c(S(=O)(=O)C(F)(F)F)c4)cc3)CC2)C1 | inactive | 63% | 518 nM |  |  |
| CC1(C)CCC(c2ccc(Cl)cc2)=C(CN2CCN(c3ccc(C(=O)NS(=O)(=O)c4ccc(N[C@H](CCN5CCN(C(=O)CCCCCCNc6cccc7c6C(=O)N([C@@H]6CCC(=O)NC6=O)C7=O)CC5)CSc5ccccc5)c(S(=O)(=O)C(F)(F)F)c4)cc3)CC2)C1 | inactive | 101% | > 2000 nM |  |  |
| CN(CCCCCCNc1cccc2c1C(=O)N([C@@H]1CCC(=O)NC1=O)C2=O)CC[C@H](CSc1ccccc1)Nc1ccc(S(=O)(=O)NC(=O)c2ccc(N3CCN(CC4=C(c5ccc(Cl)cc5)CCC(C)(C)C4)CC3)cc2)cc1S(=O)(=O)C(F)(F)F | inactive | 73% | 147 nM |  |  |
| CC1(C)CCC(c2ccc(Cl)cc2)=C(CN2CCN(c3ccc(C(=O)NS(=O)(=O)c4ccc(N[C@H](CCN5CCN(C(=O)CCCCCCCNc6cccc7c6C(=O)N([C@@H]6CCC(=O)NC6=O)C7=O)CC5)CSc5ccccc5)c(S(=O)(=O)C(F)(F)F)c4)cc3)CC2)C1 | inactive | 89% | > 2000 nM |  |  |
| CC1(C)CCC(c2ccc(Cl)cc2)=C(CN2CCN(c3ccc(C(=O)NS(=O)(=O)c4ccc(N[C@H](CCN5CCN(C(=O)COCCOCCOCCOCCNc6cccc7c6C(=O)N([C@@H]6CCC(=O)NC6=O)C7=O)CC5)CSc5ccccc5)c(S(=O)(=O)C(F)(F)F)c4)cc3)CC2)C1 | inactive | 11% | 126 nM |  |  |
| CC1(C)CCC(c2ccc(Cl)cc2)=C(CN2CCN(c3ccc(C(=O)NS(=O)(=O)c4ccc(N[C@H](CCN5CCN(C(=O)COCCOCCNc6cccc7c6C(=O)N([C@@H]6CCC(=O)NC6=O)C7=O)CC5)CSc5ccccc5)c(S(=O)(=O)C(F)(F)F)c4)cc3)CC2)C1 | inactive | 20% | 161 nM |  |  |
| CC1(C)CCC(c2ccc(Cl)cc2)=C(CN2CCN(c3ccc(C(=O)NS(=O)(=O)c4ccc(N[C@H](CCN5CCN(CCCCNc6cccc7c6C(=O)N([C@@H]6CCC(=O)NC6=O)C7=O)CC5)CSc5ccccc5)c(S(=O)(=O)C(F)(F)F)c4)cc3)CC2)C1 | inactive | 20% | 43 nM |  |  |
| CC1(C)CCC(c2ccc(Cl)cc2)=C(CN2CCN(c3ccc(C(=O)NS(=O)(=O)c4ccc(N[C@H](CCN5CCN(CCOCCNc6cccc7c6C(=O)N([C@@H]6CCC(=O)NC6=O)C7=O)CC5)CSc5ccccc5)c(S(=O)(=O)C(F)(F)F)c4)cc3)CC2)C1 | inactive | 20% | 60.5 nM |  |  |
| CN(CCCCCCCCNc1cccc2c1C(=O)N([C@@H]1CCC(=O)NC1=O)C2=O)CC[C@H](CSc1ccccc1)Nc1ccc(S(=O)(=O)NC(=O)c2ccc(N3CCN(CC4=C(c5ccc(Cl)cc5)CCC(C)(C)C4)CC3)cc2)cc1S(=O)(=O)C(F)(F)F | inactive | 94% | > 2000 nM |  |  |
| CC1(C)CCC(c2ccc(Cl)cc2)=C(CN2CCN(c3ccc(C(=O)NS(=O)(=O)c4ccc(N[C@H](CCN5CCN(C(=O)COCCOCCOCCNc6cccc7c6C(=O)N([C@@H]6CCC(=O)NC6=O)C7=O)CC5)CSc5ccccc5)c(S(=O)(=O)C(F)(F)F)c4)cc3)CC2)C1 | inactive | 21% | 211 nM |  |  |
| CN(CC[C@H](CSc1ccccc1)Nc1ccc(S(=O)(=O)NC(=O)c2ccc(N3CCN(CC4=C(c5ccc(Cl)cc5)CCC(C)(C)C4)CC3)cc2)cc1S(=O)(=O)C(F)(F)F)C(=O)CCCn1cc(COCCOCCOCCNc2cccc3c2C(=O)N([C@@H]2CCC(=O)NC2=O)C3=O)nn1 | inactive | 67% | 769 nM |  |  |
| CC1(C)CCC(c2ccc(Cl)cc2)=C(CN2CCN(c3ccc(C(=O)NS(=O)(=O)c4ccc(N[C@H](CCN5CCN(CCOCCOCCNc6cccc7c6C(=O)N([C@@H]6CCC(=O)NC6=O)C7=O)CC5)CSc5ccccc5)c(S(=O)(=O)C(F)(F)F)c4)cc3)CC2)C1 | inactive | 13% | 41.4 nM |  |  |
| CC1(C)CCC(c2ccc(Cl)cc2)=C(CN2CCN(c3ccc(C(=O)NS(=O)(=O)c4ccc(N[C@H](CCN5CCN(CCCCCNc6cccc7c6C(=O)N([C@@H]6CCC(=O)NC6=O)C7=O)CC5)CSc5ccccc5)c(S(=O)(=O)C(F)(F)F)c4)cc3)CC2)C1 | inactive | 45% | 100 nM |  |  |
| CN(CCOCCOCCOCCOCCNc1cccc2c1C(=O)N([C@@H]1CCC(=O)NC1=O)C2=O)CC[C@H](CSc1ccccc1)Nc1ccc(S(=O)(=O)NC(=O)c2ccc(N3CCN(CC4=C(c5ccc(Cl)cc5)CCC(C)(C)C4)CC3)cc2)cc1S(=O)(=O)C(F)(F)F | inactive | 5% | 19.3 nM |  |  |
| CN(CCCCCNc1cccc2c1C(=O)N([C@@H]1CCC(=O)NC1=O)C2=O)CC[C@H](CSc1ccccc1)Nc1ccc(S(=O)(=O)NC(=O)c2ccc(N3CCN(CC4=C(c5ccc(Cl)cc5)CCC(C)(C)C4)CC3)cc2)cc1S(=O)(=O)C(F)(F)F | inactive | 47% | 60.9 nM |  |  |
| CN(CCOCCOCCNc1cccc2c1C(=O)N([C@@H]1CCC(=O)NC1=O)C2=O)CC[C@H](CSc1ccccc1)Nc1ccc(S(=O)(=O)NC(=O)c2ccc(N3CCN(CC4=C(c5ccc(Cl)cc5)CCC(C)(C)C4)CC3)cc2)cc1S(=O)(=O)C(F)(F)F | inactive | 11% | 35 nM |  |  |
| CC1(C)CCC(c2ccc(Cl)cc2)=C(CN2CCN(c3ccc(C(=O)NS(=O)(=O)c4ccc(N[C@H](CCN5CCN(CCCNc6cccc7c6C(=O)N([C@@H]6CCC(=O)NC6=O)C7=O)CC5)CSc5ccccc5)c(S(=O)(=O)C(F)(F)F)c4)cc3)CC2)C1 (mixture of isomers) | inactive | 30% |  |  |  |
| CC1(C)CCC(c2ccc(Cl)cc2)=C(CN2CCN(c3ccc(C(=O)NS(=O)(=O)c4ccc(N[C@H](CCN5CCN(C(=O)NCCOCCOCCNc6cccc7c6C(=O)N([C@@H]6CCC(=O)NC6=O)C7=O)CC5)CSc5ccccc5)c(S(=O)(=O)C(F)(F)F)c4)cc3)CC2)C1 | inactive | 27% | 118 nM |  |  |
| CN(CCCCCCCn1cc(COCCOCCOCCNc2cccc3c2C(=O)N([C@@H]2CCC(=O)NC2=O)C3=O)nn1)CC[C@H](CSc1ccccc1)Nc1ccc(S(=O)(=O)NC(=O)c2ccc(N3CCN(CC4=C(c5ccc(Cl)cc5)CCC(C)(C)C4)CC3)cc2)cc1S(=O)(=O)C(F)(F)F | inactive | 24% |  |  |  |
| CC1(C)CCC(c2ccc(Cl)cc2)=C(CN2CCN(c3ccc(C(=O)NS(=O)(=O)c4ccc(N[C@H](CCN5CCN(C(=O)CCCCNc6cccc7c6C(=O)N([C@@H]6CCC(=O)NC6=O)C7=O)CC5)CSc5ccccc5)c(S(=O)(=O)C(F)(F)F)c4)cc3)CC2)C1 | inactive | 81% | 346 nM |  |  |
| CN(CC[C@H](CSc1ccccc1)Nc1ccc(S(=O)(=O)NC(=O)c2ccc(N3CCN(CC4=C(c5ccc(Cl)cc5)CCC(C)(C)C4)CC3)cc2)cc1S(=O)(=O)C(F)(F)F)C(=O)CCCCCCn1cc(COCCOCCOCCNc2cccc3c2C(=O)N([C@@H]2CCC(=O)NC2=O)C3=O)nn1 | inactive | 29% | 179 nM |  |  |

From ChEMBL document CHEMBL4680217, “Discovery of PROTAC BCL-X degraders as potent anticancer agents with low on-target platelet toxicity” (Eur J Med Chem, 2020)
